# From ChEMBL document CHEMBL4665757, “Design and synthesis of dual active neovibsanin derivatives based on a chemical structure merging method” (Bioorg Med Chem Lett, 2020)
# The source made the active and inactive calls. The rule behind the calls is not given here.
# Assays:
# PC-12 [1] = test: Induction of neurite outgrowth in rat PC12 cells at 30 uM incubated for 4 days in presence of NGF by phase contrast microscopic analysis; type: functional, cell-based; conditions: time 4.0 day
# PC-12 [2] = test: Induction of neurite outgrowth in rat PC12 cells at 30 uM incubated for 4 days by phase contrast microscopic analysis; type: functional, cell-based; conditions: time 4.0 day
# [3] = Solubility in water; type: physicochemical; conditions: buffer
# PC-12 [4] = test: Induction of neurite outgrowth in rat PC12 cells at 0.3 to 30 uM incubated for 4 days in presence of NGF by phase contrast microscopic analysis; type: functional, cell-based; conditions: dose microM 0.3-30, time 4.0 day
SMILES,Activity (PC-12 [1]),Activity (PC-12 [2]),solubility [3],Activity (PC-12 [4])
COC1(C)C[C@@H]2OCC3=CCCC[C@]32O1 (stereo not given in full),Active,–,–,–
COc1ccc(/C=C/[C@@H]2CCC=C[C@H]2c2ccc(OC)c(OC)c2)cc1OC,–,Active,–,–
COc1ccc(/C=C/[C@@H]2C[C@@]34OC(C)(O)C[C@@H]3OCC4=C[C@H]2c2ccc(OC)c(OC)c2)cc1OC (mixture of isomers),–,Active,Insoluble,Active
